Experimental data as given in patent US4354039A, “Chlorocitric acids” (Hoffmann-La Roche Inc., priority 1981, dated 1982).

Key:
[1] = Effect on stomach emptying, [14C] glucose load (Example 25); format: in vivo, Rats; details: 0.33 mmoles/kg oral, 60 min after [14C] glucose load
Procedure: Rats were trained to consume a 3 hr 70% glucose meal from 8 a.m. to 11 a.m. daily. On the experimental day, compounds were administered orally by intubation 30 min before a [^14 C] glucose load was given also by intubation. […] Sixty minutes later the rats were killed by decapitation; blood and stomachs were collected on ice.
Data are expressed as follows: dpm×10^3 per ml of serum and dpm×10^3 per stomach.

[2] = Body weight and food intake in meal-fed rats, oral, 17 day study (Example 21); format: in vivo, Charles River female rats; details: for CBWG, cumulative body weight gain / CFC, cumulative food consumption / FBW, final body weight: 17 days; for IBW, initial body weight: baseline
Procedure: Two month old Charles River female rats (Charles River Breeding Laboratories, Wilmington, Mass.) were individually housed in wire-bottomedcages in a temperature-regulated (22° C.) light-controlled room (12 hr light, 6 a.m. to 6 p.m. and 12 hr dark, 6 p.m. to 6 a.m.). […] On the 8th day, the animals were administered water or (-)-threo-chlorocitric acid at the indicated concentration by oral intubation 30 min before the 3 hr meal. Treatment was continued for 17 days. Food cups were weighed immediately after the meal. The amount of body weight gained and food consumed during the period was determined.

[3] = Anorectic activity, acute, pyramiding dose and chronic studies (summary statements); format: in vivo, mammals; details: in words
[4] = Effect of stereoisomers on food consumption of meal-fed rats (Example 14); format: in vivo, Charles River female rats
Procedure: Animals were fasted 48 hr, then meal-fed the 70% glucose diet described by A. C. […] Following 5 to 12 days alimentation on the meal-feeding regimen, rats were dosed with the appropriate compounds orally by intubation 1/2 hr before the 3 hr meal. Food cups were weighed immediately after the meal. The control group consisted of 5 to 10 rats, while the experimental group consisted of 4 to 6 rats.

[5] = Body weight and food intake in meal-fed rats, 16 day study (Example 19); format: in vivo, Charles River female rats; details: baseline
Procedure: Two month old Charles River female rats (Charles River Breeding Laboratories, Wilmington, Mass.) were individually housed in wire-bottomedcages in a temperature-regulated (22° C.) light-controlled room (12 hr light, 6 a.m. to 6 p.m. and 12 hr dark, 6 p.m. to 6 a.m.). […] (1) control, (2) (-)-threo-chlorocitric acid (1.0 mmoles/kg, 227 mg/kg) administered by oral intubation 30 min before the 3 hr meal, and (3) (-)-threo-chlorocitric acid (1.1 mmoles/kg, 250 mg/kg) as a dietary admixture for the 3 hr meal. Treatment was continued for 16 days. The amount of body weight gained and food consumed during the study were determined.

[6] = Chow, 0.25 mmoles (57 mg)/kg oral
[7] = Chow, 0.50 mmoles (114 mg)/kg oral
[8] = Chow, 1.00 mmoles (227 mg)/kg oral

O=C(O)C[C@@](O)(C(=O)O)[C@@H](Cl)C(=O)O [(-)-threo-Chlorocitric acid]
Serum, % of control [1]: 33 % of control
Stomach Contents, % of control [1]: 312 % of control
CBWG, cumulative body weight gain [2, 6]: -1 ± 4 g
CFC, cumulative food consumption [2, 6]: 186 ± 9 g
FBW, final body weight [2, 6]: 213 ± 7 g
IBW, initial body weight [2, 6]: 214 ± 7 g
CBWG, cumulative body weight gain [2, 7]: -32 ± 6 g
CFC, cumulative food consumption [2, 7]: 165 ± 9 g
FBW, final body weight [2, 7]: 177 ± 6 g
IBW, initial body weight [2, 7]: 209 ± 5 g
CBWG, cumulative body weight gain [2, 8]: -30 ± 7 g
CFC, cumulative food consumption [2, 8]: 130 ± 13 g
FBW, final body weight [2, 8]: 176 ± 11 g
IBW, initial body weight [2, 8]: 207 ± 3 g
IBW, initial body weight ([2]; G-70 diet, 0.25 mmoles (57 mg)/kg oral): 198 ± 4 g
IBW, initial body weight ([2]; G-70 diet, 0.50 mmoles (114 mg)/kg oral): 195 ± 4 g
IBW, initial body weight ([2]; G-70 diet, 1.00 mmoles (227 mg)/kg oral): 198 ± 3 g
activity in the acute meal-fed assay utilizing three diets and in pyramiding dose studies, reduction in food consumption [3]: significantly more active
appetite suppression and reduction of body weight gain ([3]; short- and long-term chronic studies): suppressed appetite and reduced body weight gain in mammals more efficaciously than hydroxycitric acid or citric acid
Food Consumption, % of control ([4]; 0.66 mmoles/kg oral): 59 % of control
Food Consumption, % of control ([4]; 2.63 mmoles/kg oral): 16 % of control
IBW, initial body weight ([5]; dietary admixture 1.1 mmoles (250 mg)/kg/day): 192 ± 5 g
IBW, initial body weight ([5]; oral intubation 1.0 mmoles (227 mg)/kg/day): 189 ± 3 g
